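Step 1: Grow cells in 96-well plates. Step 2: Expose to compound for 48 hours at 5 concentrations. Step 3: Interpolate endpoints linearly; if unreached, use highest concentration. TGI: total growth inhibition.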
Legend:
Experiment in all cases: NCI-60 cell line screen, 48 h
[1] = system: MOLT-4 leukemia
[2] = system: HCT-116 colon
[3] = system: U251 CNS
[4] = system: SNB-75 CNS
[5] = system: K-562 leukemia
[6] = system: DMS 273 small cell lung
[7] = system: SNB-78 CNS
[8] = system: SK-MEL-28 melanoma
[9] = system: SW-620 colon
[10] = system: SN12C renal
[11] = system: HOP-62 NSCLC
[12] = system: M19-MEL melanoma
[13] = system: XF 498 CNS
[14] = system: HS 578T breast

**Q.** What does the source list for `COC(=O)[C@@]12OC[C@]34C([C@@H](O)C1O)[C@@]1(C)CC(=O)C(OC(=O)CC(C)C(F)(F)F)=C(C)C1C[C@H]3OC(=O)[C@H](O)[C@H]42` (stereo partly specified)?
**A.** TGI [1]: 19.4 µM; TGI [2]: > 62.5 µM; TGI [3]: > 62.5 µM; TGI [4]: 31.4 µM; TGI [5]: > 62.5 µM; TGI [6]: 11.2 µM; TGI [7]: > 62.5 µM; TGI [8]: 18.2 µM; TGI [9]: > 62.5 µM; TGI [10]: 21.2 µM; TGI [11]: > 62.5 µM; TGI [12]: 6.25 µM; TGI [13]: 5.18 µM

**Q.** What does the source list for `O=C(c1ccccc1)C1(Br)S(=O)(=O)OCCOS1(=O)=O`?
**A.** TGI [1]: > 100 µM; TGI [2]: > 100 µM; TGI [3]: > 100 µM; TGI [4]: > 100 µM; TGI [5]: > 100 µM; TGI [6]: > 100 µM; TGI [7]: > 100 µM; TGI [8]: > 100 µM; TGI [9]: > 100 µM; TGI [10]: > 100 µM; TGI [11]: > 100 µM; TGI [12]: > 100 µM; TGI [13]: > 100 µM

**Q.** What does the source list for `COc1ccc2nc3cc(Cl)ccc3c(NC(C)CCCN(CCCl)CCCl)c2c1` (stereo unspecified)?
**A.** TGI [1]: 0.344 µM; TGI [2]: 1.5 µM; TGI [3]: 5.65 µM; TGI [4]: 8.98 µM; TGI [5]: 2.3 µM; TGI [6]: 2.27 µM; TGI [7]: 7.38 µM; TGI [8]: 18.4 µM; TGI [9]: 2.07 µM; TGI [10]: 8.66 µM; TGI [11]: 7.38 µM; TGI [12]: 8.78 µM; TGI [13]: 4.43 µM

**Q.** Which results are given for `CCN(CC)CCNc1ccc2ncn3c4ccc(O)cc4c(=O)c1c23`?
**A.** TGI [1]: 3.59 µM; TGI [14]: 21 µM; TGI [2]: 13 µM; TGI [3]: 2.75 µM; TGI [4]: 11.6 µM; TGI [5]: 34.4 µM; TGI [6]: 12.5 µM; TGI [7]: 17.6 µM; TGI [8]: 21.8 µM; TGI [9]: 8.84 µM; TGI [10]: 15.1 µM; TGI [11]: 11.6 µM; TGI [12]: 17.1 µM; TGI [13]: 7.42 µM

**Q.** For `CC(C)(CN1CCCCC1)C(=O)/C=C/c1ccc(Br)cc1`, which TGI [1] is on record?
**A.** 6.87 µM

**Q.** And the TGI [2]?
**A.** 8.08 µM

**Q.** What about the TGI [3] of the same molecule?
**A.** 8.11 µM

**Q.** And the TGI [4]?
**A.** 14.9 µM

**Q.** And the TGI [5]?
**A.** 8.95 µM

**Q.** What about the TGI [6] of the same molecule?
**A.** 4.92 µM

**Q.** And the TGI [7]?
**A.** 31.6 µM

**Q.** And the TGI [8]?
**A.** 11.7 µM

**Q.** What about the TGI [9] of the same molecule?
**A.** 6.83 µM

**Q.** And the TGI [10]?
**A.** 7.66 µM

**Q.** And the TGI [11]?
**A.** 9.82 µM

**Q.** And the TGI [12]?
**A.** > 51.8 µM

**Q.** And the TGI [13]?
**A.** 6.21 µM

— PubChem BioAssay (NCI)
